Data published in ChEMBL document CHEMBL3352227, “Synthesis, antimycobacterial and antibacterial evaluation of l-[(1R, 2S)-2-fluorocyclopropyl]fluoroquinolone derivatives containing an oxime functional moiety” (Eur J Med Chem, 2014).
In brackets after ≈: the same amount, converted by molar mass.

How the values were obtained:
[1] = tested on: Mycobacterium tuberculosis; assay: Antimycobacterial activity against Mycobacterium tuberculosis H37Rv ATCC 27294 by MABA method; format: functional
Escherichia coli [2] = assay: Antibacterial activity against Escherichia coli ATCC 25922 after 18 to 24 hrs by standard twofold serial dilution method; format: functional
Escherichia coli [3] = assay: Antibacterial activity against Escherichia coli 12-1 after 18 to 24 hrs by standard twofold serial dilution method; format: functional
Escherichia coli [4] = assay: Antibacterial activity against extended-spectrum beta-lactamase producing Escherichia coli 12-2 after 18 to 24 hrs by standard twofold serial dilution method; format: functional
Escherichia coli [5] = assay: Antibacterial activity against extended-spectrum beta-lactamase producing Escherichia coli 12-3 after 18 to 24 hrs by standard twofold serial dilution method; format: functional
Escherichia coli [6] = assay: Antibacterial activity against extended-spectrum beta-lactamase producing Escherichia coli 12-14 after 18 to 24 hrs by standard twofold serial dilution method; format: functional
Escherichia coli [7] = assay: Antibacterial activity against extended-spectrum beta-lactamase producing Escherichia coli 12-15 after 18 to 24 hrs by standard twofold serial dilution method; format: functional
Klebsiella pneumoniae [8] = assay: Antibacterial activity against Klebsiella pneumoniae 12-1 after 18 to 24 hrs by standard twofold serial dilution method; format: functional
Klebsiella pneumoniae [9] = assay: Antibacterial activity against Klebsiella pneumoniae 12-2 after 18 to 24 hrs by standard twofold serial dilution method; format: functional
Klebsiella pneumoniae [10] = assay: Antibacterial activity against Klebsiella pneumoniae 12-4 after 18 to 24 hrs by standard twofold serial dilution method; format: functional
Klebsiella pneumoniae [11] = assay: Antibacterial activity against extended-spectrum beta-lactamase producin Klebsiella pneumoniae 12-3 after 18 to 24 hrs by standard twofold serial dilution method; format: functional
Klebsiella pneumoniae [12] = assay: Antibacterial activity against extended-spectrum beta-lactamase producin Klebsiella pneumoniae 12-4 after 18 to 24 hrs by standard twofold serial dilution method; format: functional
Klebsiella pneumoniae [13] = assay: Antibacterial activity against extended-spectrum beta-lactamase producin Klebsiella pneumoniae 12-7 after 18 to 24 hrs by standard twofold serial dilution method; format: functional
Klebsiella pneumoniae [14] = assay: Antibacterial activity against extended-spectrum beta-lactamase producin Klebsiella pneumoniae 12-14 after 18 to 24 hrs by standard twofold serial dilution method; format: functional
Pseudomonas aeruginosa [15] = assay: Antibacterial activity against Pseudomonas aeruginosa 12-12 after 18 to 24 hrs by standard twofold serial dilution method; format: functional
Pseudomonas aeruginosa [16] = assay: Antibacterial activity against Pseudomonas aeruginosa 12-14 after 18 to 24 hrs by standard twofold serial dilution method; format: functional
Staphylococcus aureus [17] = assay: Antibacterial activity against Staphylococcus aureus ATCC 25923 after 18 to 24 hrs by standard twofold serial dilution method; format: functional
Staphylococcus aureus [18] = assay: Antibacterial activity against methicillin-sensitive Staphylococcus aureus 12-1 after 18 to 24 hrs by standard twofold serial dilution method; format: functional
Staphylococcus aureus [19] = assay: Antibacterial activity against methicillin-sensitive Staphylococcus aureus 12-2 after 18 to 24 hrs by standard twofold serial dilution method; format: functional
Staphylococcus aureus [20] = assay: Antibacterial activity against methicillin-sensitive Staphylococcus aureus 12-4 after 18 to 24 hrs by standard twofold serial dilution method; format: functional
Staphylococcus aureus [21] = assay: Antibacterial activity against methicillin-sensitive Staphylococcus aureus 12-5 after 18 to 24 hrs by standard twofold serial dilution method; format: functional
Staphylococcus aureus [22] = assay: Antibacterial activity against methicillin-resistant Staphylococcus aureus 12-2 after 18 to 24 hrs by standard twofold serial dilution method; format: functional
Staphylococcus aureus [23] = assay: Antibacterial activity against methicillin-resistant Staphylococcus aureus 12-4 after 18 to 24 hrs by standard twofold serial dilution method; format: functional
Staphylococcus aureus [24] = assay: Antibacterial activity against methicillin-resistant Staphylococcus aureus 12-5 after 18 to 24 hrs by standard twofold serial dilution method; format: functional
[25] = tested on: Staphylococcus epidermidis; assay: Antibacterial activity against methicillin-sensitive Staphylococcus epidermidis 12-1 after 18 to 24 hrs by standard twofold serial dilution method; format: functional
[26] = tested on: Staphylococcus epidermidis; assay: Antibacterial activity against methicillin-sensitive Staphylococcus epidermidis 12-3 after 18 to 24 hrs by standard twofold serial dilution method; format: functional
[27] = tested on: Staphylococcus epidermidis; assay: Antibacterial activity against methicillin-sensitive Staphylococcus epidermidis 12-6 after 18 to 24 hrs by standard twofold serial dilution method; format: functional
[28] = tested on: Staphylococcus epidermidis; assay: Antibacterial activity against methicillin-sensitive Staphylococcus epidermidis 12-8 after 18 to 24 hrs by standard twofold serial dilution method; format: functional
[29] = tested on: Staphylococcus epidermidis; assay: Antibacterial activity against methicillin-resistant Staphylococcus epidermidis 12-1 after 18 to 24 hrs by standard twofold serial dilution method; format: functional
[30] = tested on: Staphylococcus epidermidis; assay: Antibacterial activity against methicillin-resistant Staphylococcus epidermidis 12-6 after 18 to 24 hrs by standard twofold serial dilution method; format: functional
Streptococcus pneumoniae [31] = assay: Antibacterial activity against Streptococcus pneumoniae ATCC 49619 after 18 to 24 hrs by standard twofold serial dilution method; format: functional
Streptococcus pneumoniae [32] = assay: Antibacterial activity against Streptococcus pneumoniae 12-18 after 18 to 24 hrs by standard twofold serial dilution method; format: functional
Escherichia coli [33] = assay: Antibacterial activity against Escherichia coli 12-1 infected in mouse dosed orally twice at 0 and 6 hrs after infection; format: functional; details: 12-1, po
Staphylococcus aureus [34] = assay: Antibacterial activity against methicillin-sensitive Staphylococcus aureus 12-1 infected in mouse dosed orally twice at 0 and 6 hrs after infection; format: functional; details: 12-1, po
[35] = Solubility of the compound; format: physicochemical

Row | Structure (SMILES) | MIC [1] [µg/mL] | MIC (Escherichia coli [2]) [µg/mL] | MIC (Escherichia coli [3]) [µg/mL] | MIC (Escherichia coli [4]) [µg/mL] | MIC (Escherichia coli [5]) [µg/mL] | MIC (Escherichia coli [6]) [µg/mL] | MIC (Escherichia coli [7]) [µg/mL] | MIC (Klebsiella pneumoniae [8]) [µg/mL] | MIC (Klebsiella pneumoniae [9]) [µg/mL] | MIC (Klebsiella pneumoniae [10]) [µg/mL] | MIC (Klebsiella pneumoniae [11]) [µg/mL] | MIC (Klebsiella pneumoniae [12]) [µg/mL] | MIC (Klebsiella pneumoniae [13]) [µg/mL] | MIC (Klebsiella pneumoniae [14]) [µg/mL] | MIC (Pseudomonas aeruginosa [15]) [µg/mL] | MIC (Pseudomonas aeruginosa [16]) [µg/mL] | MIC (Staphylococcus aureus [17]) [µg/mL] | MIC (Staphylococcus aureus [18]) [µg/mL] | MIC (Staphylococcus aureus [19]) [µg/mL] | MIC (Staphylococcus aureus [20]) [µg/mL] | other results
1 | CO/N=C1/CN(c2c(F)cc3c(=O)c(C(=O)O)cn([C@@H]4C[C@@H]4F)c3c2OC)[C@H]1CN | 0.5 (≈ 1.18 µM) | 0.25 (≈ 0.592 µM) | 2 (≈ 4.73 µM) | 64 (≈ 152 µM) | 32 (≈ 75.8 µM) | 128 (≈ 303 µM) | 64 (≈ 152 µM) | 0.5 (≈ 1.18 µM) | 0.5 (≈ 1.18 µM) | 0.5 (≈ 1.18 µM) | 64 (≈ 152 µM) | 16 (≈ 37.9 µM) | 2 (≈ 4.73 µM) | 64 (≈ 152 µM) | 2 (≈ 4.73 µM) | 16 (≈ 37.9 µM) | < 0.008 | 0.125 (≈ 0.296 µM) | 0.125 (≈ 0.296 µM) | 0.06 (≈ 0.142 µM) | MIC (Staphylococcus aureus [21]): 0.125 µg/mL (≈ 0.296 µM); MIC (Staphylococcus aureus [22]): 8 µg/mL (≈ 18.9 µM); MIC (Staphylococcus aureus [23]): 8 µg/mL (≈ 18.9 µM); MIC (Staphylococcus aureus [24]): 4 µg/mL (≈ 9.47 µM); MIC [25]: 0.125 µg/mL (≈ 0.296 µM); MIC [26]: 0.125 µg/mL (≈ 0.296 µM); MIC [27]: 0.125 µg/mL (≈ 0.296 µM); MIC [28]: 2 µg/mL (≈ 4.73 µM); MIC [29]: 2 µg/mL (≈ 4.73 µM); MIC [30]: 2 µg/mL (≈ 4.73 µM); MIC (Streptococcus pneumoniae [31]): 0.25 µg/mL (≈ 0.592 µM); MIC (Streptococcus pneumoniae [32]): 2 µg/mL (≈ 4.73 µM)
2 | NCC1CN(c2nc3c(cc2F)c(=O)c(C(=O)O)cn3[C@@H]2C[C@@H]2F)C/C1=N/OCc1ccccc1 (some centres not stated) | 0.5 (≈ 1.03 µM) | < 0.008 | 0.125 (≈ 0.259 µM) | 64 (≈ 132 µM) | 16 (≈ 33.1 µM) | 16 (≈ 33.1 µM) | 128 (≈ 265 µM) | 0.03 (≈ 0.0621 µM) | 0.125 (≈ 0.259 µM) | 0.06 (≈ 0.124 µM) | 16 (≈ 33.1 µM) | 16 (≈ 33.1 µM) | 1 (≈ 2.07 µM) | 32 (≈ 66.2 µM) | 1 (≈ 2.07 µM) | 1 (≈ 2.07 µM) | < 0.008 | < 0.008 | < 0.008 | < 0.008 | MIC (Staphylococcus aureus [21]): < 0.008 µg/mL; MIC (Staphylococcus aureus [22]): 1 µg/mL (≈ 2.07 µM); MIC (Staphylococcus aureus [23]): 2 µg/mL (≈ 4.14 µM); MIC (Staphylococcus aureus [24]): 1 µg/mL (≈ 2.07 µM); MIC [25]: < 0.008 µg/mL; MIC [26]: < 0.008 µg/mL; MIC [27]: < 0.008 µg/mL; MIC [28]: 0.125 µg/mL (≈ 0.259 µM); MIC [29]: 0.25 µg/mL (≈ 0.517 µM); MIC [30]: 2 µg/mL (≈ 4.14 µM); MIC (Streptococcus pneumoniae [31]): 0.03 µg/mL (≈ 0.0621 µM); MIC (Streptococcus pneumoniae [32]): 0.25 µg/mL (≈ 0.517 µM); ED50 (Escherichia coli [33]): 18 mg/kg; ED50 (Staphylococcus aureus [34]): 16.9 mg/kg; solubility [35]: 240 µg/mL (≈ 496 µM)
